Measurements taken from US20170190671A1, “BIS(ARYL)CATECHOL DERIVATIVES AS HERBICIDES” (E I DU PONT DE NEMOURS AND COMPANY, priority 2014, published 2017).

Key:
Format in all cases: in vivo
[1] = test system: Italian ryegrass (Lolium multiflorum); assay: Test A preemergence; conditions: Lolium multiflorum, pre-emergence, 240 h; for pest or weed control at 31 g/ha: 31 g ai/ha, 0 to 100 scale (0 no effect, 100 complete control), read-out: Ryegrass, Italian plant response rating; for pest or weed control at 125 g/ha: 125 g ai/ha, 0 to 100 scale, read-out: Plant response rating, Ryegrass, Italian
Text: (§1) Seeds of plant species selected from barnyardgrass (Echinochloa crus-galli), kochia (Kochia scoparia), ragweed (common ragweed, Ambrosia elatior), Italian ryegrass (Lolium multiflorum), large (Lg) crabgrass (Digitaria sanguinalis), giant foxtail (Setaria faberii), morningglory (Ipomoea spp.), pigweed (Amaranthus retroflexus), velvetleaf (Abutilon theophrasti), wheat (Triticum aestivum), and corn (Zea mays) were planted into a blend of loam soil and sand and treated preemergence with a directed soil spray using test chemicals formulated in a non-phytotoxic solvent mixture which included a surfactant.
(§2) At the same time, plants selected from these crop and weed species and also blackgrass (Alopecurus myosuroides), and galium (catchweed bedstraw, Galium aparine) were planted in pots containing the same blend of loam soil and sand and treated with postemergence applications of test chemicals formulated in the same manner. Plants ranged in height from 2 to 10 cm and were in the one- to two-leaf stage for the postemergence treatment. Treated plants and untreated controls were maintained in a greenhouse for approximately 10 days, after which time all treated plants were compared to untreated controls and visually evaluated for injury. Plant response ratings, summarized in Table A, are based on a 0 to 100 scale where 0 is no effect and 100 is complete control. A dash (-) response means no test result.

[2] = test system: barnyardgrass (Echinochloa crus-galli); assay: Test A preemergence; conditions: Echinochloa crus-galli, pre-emergence, 240 h; for pest or weed control at 31 g/ha: 31 g ai/ha, 0 to 100 scale (0 no effect, 100 complete control), read-out: Barnyardgrass plant response rating; for pest or weed control at 125 g/ha: 125 g ai/ha, 0 to 100 scale, read-out: Plant response rating, Barnyardgrass
Text: as §1, §2

[3] = test system: giant foxtail (Setaria faberii); assay: Test A preemergence; conditions: Setaria faberi, pre-emergence, 240 h; for pest or weed control at 31 g/ha: 31 g ai/ha, 0 to 100 scale (0 no effect, 100 complete control), read-out: Foxtail, Giant plant response rating; for pest or weed control at 125 g/ha: 125 g ai/ha, 0 to 100 scale, read-out: Plant response rating, Foxtail, Giant
Text: as §1, §2

[4] = test system: kochia (Kochia scoparia); assay: Test A preemergence; conditions: Bassia scoparia, pre-emergence, 240 h; for pest or weed control at 31 g/ha: 31 g ai/ha, 0 to 100 scale (0 no effect, 100 complete control), read-out: Kochia plant response rating; for pest or weed control at 125 g/ha: 125 g ai/ha, 0 to 100 scale, read-out: Plant response rating, Kochia
Text: as §1, §2

[5] = test system: pigweed (Amaranthus retroflexus); assay: Test A preemergence; conditions: Amaranthus retroflexus, pre-emergence, 240 h; for pest or weed control at 31 g/ha: 31 g ai/ha, 0 to 100 scale (0 no effect, 100 complete control), read-out: Pigweed plant response rating; for pest or weed control at 125 g/ha: 125 g ai/ha, 0 to 100 scale, read-out: Plant response rating, Pigweed
Text: as §1, §2

[6] = test system: ragweed (common ragweed, Ambrosia elatior); assay: Test A preemergence; conditions: Ambrosia artemisiifolia, pre-emergence, 240 h; for pest or weed control at 31 g/ha: 31 g ai/ha, 0 to 100 scale (0 no effect, 100 complete control), read-out: Ragweed plant response rating; for pest or weed control at 125 g/ha: 125 g ai/ha, 0 to 100 scale, read-out: Plant response rating, Ragweed
Text: as §1, §2

[7] = test system: Italian ryegrass (Lolium multiflorum); assay: Test A postemergence; conditions: Lolium multiflorum, post-emergence, 240 h, 0 to 100 scale, read-out: Plant response rating, Ryegrass, Italian; for pest or weed control at 31 g/ha: 31 g ai/ha; for pest or weed control at 125 g/ha: 125 g ai/ha
Text: as §1, §2

[8] = test system: barnyardgrass (Echinochloa crus-galli); assay: Test A postemergence; conditions: Echinochloa crus-galli, post-emergence, 240 h, 0 to 100 scale, read-out: Plant response rating, Barnyardgrass; for pest or weed control at 31 g/ha: 31 g ai/ha; for pest or weed control at 125 g/ha: 125 g ai/ha
Text: as §1, §2

[9] = test system: blackgrass (Alopecurus myosuroides); assay: Test A postemergence; conditions: Alopecurus myosuroides, post-emergence, 240 h, 0 to 100 scale, read-out: Plant response rating, Blackgrass; for pest or weed control at 31 g/ha: 31 g ai/ha; for pest or weed control at 125 g/ha: 125 g ai/ha
Text: as §1, §2

[10] = test system: corn (Zea mays); assay: Test A postemergence; conditions: Zea mays, post-emergence, 240 h, 0 to 100 scale; for Corn plant response rating (crop injury, 0 = no effect, 100 = complete kill) at 31 g/ha: 31 g ai/ha; for Corn plant response rating (crop injury, 0 = no effect, 100 = complete kill) at 125 g/ha: 125 g ai/ha
Text: as §1, §2

[11] = test system: galium (catchweed bedstraw, Galium aparine); assay: Test A postemergence; conditions: Galium, post-emergence, 240 h, 0 to 100 scale, read-out: Plant response rating, Galium; for pest or weed control at 31 g/ha: 31 g ai/ha; for pest or weed control at 125 g/ha: 125 g ai/ha
Text: as §1, §2

[12] = test system: giant foxtail (Setaria faberii); assay: Test A postemergence; conditions: Setaria faberi, post-emergence, 240 h, 0 to 100 scale, read-out: Plant response rating, Foxtail, Giant; for pest or weed control at 31 g/ha: 31 g ai/ha; for pest or weed control at 125 g/ha: 125 g ai/ha
Text: as §1, §2

[13] = test system: kochia (Kochia scoparia); assay: Test A postemergence; conditions: Bassia scoparia, post-emergence, 240 h, 0 to 100 scale, read-out: Plant response rating, Kochia; for pest or weed control at 31 g/ha: 31 g ai/ha; for pest or weed control at 125 g/ha: 125 g ai/ha
Text: as §1, §2

[14] = test system: pigweed (Amaranthus retroflexus); assay: Test A postemergence; conditions: Amaranthus retroflexus, post-emergence, 240 h, 0 to 100 scale, read-out: Plant response rating, Pigweed; for pest or weed control at 31 g/ha: 31 g ai/ha; for pest or weed control at 125 g/ha: 125 g ai/ha
Text: as §1, §2

[15] = test system: ragweed (common ragweed, Ambrosia elatior); assay: Test A postemergence; conditions: Ambrosia artemisiifolia, post-emergence, 240 h, 0 to 100 scale, read-out: Plant response rating, Ragweed; for pest or weed control at 31 g/ha: 31 g ai/ha; for pest or weed control at 125 g/ha: 125 g ai/ha
Text: as §1, §2

[16] = test system: wheat (Triticum aestivum); assay: Test A postemergence; conditions: Triticum aestivum, post-emergence, 240 h, 0 to 100 scale, read-out: Plant response rating, Wheat; for plant injury at 31 g/ha: 31 g ai/ha; for plant injury at 125 g/ha: 125 g ai/ha
Text: as §1, §2

| SMILES | pest or weed control at 31 g/ha [1] [%] | pest or weed control at 125 g/ha [1] [%] | pest or weed control at 31 g/ha [2] [%] | pest or weed control at 125 g/ha [2] [%] | pest or weed control at 31 g/ha [3] [%] | pest or weed control at 125 g/ha [3] [%] | pest or weed control at 31 g/ha [4] [%] | pest or weed control at 125 g/ha [4] [%] | pest or weed control at 31 g/ha [5] [%] | pest or weed control at 125 g/ha [5] [%] | pest or weed control at 31 g/ha [6] [%] | pest or weed control at 125 g/ha [6] [%] | pest or weed control at 31 g/ha [7] [%] | pest or weed control at 125 g/ha [7] [%] | pest or weed control at 31 g/ha [8] [%] | pest or weed control at 125 g/ha [8] [%] | pest or weed control at 31 g/ha [9] [%] | pest or weed control at 125 g/ha [9] [%] | Corn plant response rating (crop injury, 0 = no effect, 100 = complete kill) at 31 g/ha [10] [%] | Corn plant response rating (crop injury, 0 = no effect, 100 = complete kill) at 125 g/ha [10] [%] | other results |
| --- | --- | --- | --- | --- | --- | --- | --- | --- | --- | --- | --- | --- | --- | --- | --- | --- | --- | --- | --- | --- | --- |
| N#Cc1cccc(Oc2ncc(F)cn2)c1Oc1ccc(Br)cn1 [Compound 9] | 0 | 0 | 30 | 90 | 30 | 100 | 40 | 100 | 100 | 100 | 0 | 10 | 20 | 70 | 0 | 50 | 30 | 80 | 0 | 10 | pest or weed control at 31 g/ha [11]: 70%; pest or weed control at 125 g/ha [11]: 100%; pest or weed control at 31 g/ha [12]: 10%; pest or weed control at 125 g/ha [12]: 70%; pest or weed control at 31 g/ha [13]: 60%; pest or weed control at 125 g/ha [13]: 100%; pest or weed control at 31 g/ha [14]: 50%; pest or weed control at 125 g/ha [14]: 100%; pest or weed control at 31 g/ha [15]: 30%; pest or weed control at 125 g/ha [15]: 70%; plant injury at 31 g/ha [16]: 0%; plant injury at 125 g/ha [16]: 40% |
| N#Cc1cccc(Oc2ncc(Cl)cn2)c1Oc1cccnc1 [Compound 8] | 0 | 0 | 0 | 0 | 0 | 0 | 0 | 0 | 0 | 10 | 0 | 0 | 0 | 0 | 0 | 10 | 0 | 0 | 0 | 10 | pest or weed control at 31 g/ha [11]: 10%; pest or weed control at 125 g/ha [11]: 20%; pest or weed control at 31 g/ha [12]: 0%; pest or weed control at 125 g/ha [12]: 0%; pest or weed control at 31 g/ha [13]: 10%; pest or weed control at 125 g/ha [13]: 30%; pest or weed control at 31 g/ha [14]: 10%; pest or weed control at 125 g/ha [14]: 20%; pest or weed control at 31 g/ha [15]: 0%; pest or weed control at 125 g/ha [15]: 0%; plant injury at 31 g/ha [16]: 0%; plant injury at 125 g/ha [16]: 0% |
| N#Cc1cccc(Oc2ncc(Br)cn2)c1Oc1cccnc1 [Compound 7] | 0 | 0 | 0 | 0 | 0 | 0 | 0 | 0 | 0 | 0 | 0 | 0 | 0 | 0 | 0 | 0 | 0 | 0 | 0 | 10 | pest or weed control at 31 g/ha [11]: 10%; pest or weed control at 125 g/ha [11]: 10%; pest or weed control at 31 g/ha [12]: 0%; pest or weed control at 125 g/ha [12]: 0%; pest or weed control at 31 g/ha [13]: 0%; pest or weed control at 125 g/ha [13]: 10%; pest or weed control at 31 g/ha [14]: 10%; pest or weed control at 125 g/ha [14]: 20%; pest or weed control at 31 g/ha [15]: 0%; pest or weed control at 125 g/ha [15]: 0%; plant injury at 31 g/ha [16]: 0%; plant injury at 125 g/ha [16]: 0% |
